These compounds were tested against T1, hMAGL (Homo sapiens, UniProt Q99685) (assay: 2-AG assay: MAGL inhibition, hydrolysis of 2-arachidonoylglycerol to arachidonic acid followed by mass spectrometry).
T1 sequence (Q99685 1-303): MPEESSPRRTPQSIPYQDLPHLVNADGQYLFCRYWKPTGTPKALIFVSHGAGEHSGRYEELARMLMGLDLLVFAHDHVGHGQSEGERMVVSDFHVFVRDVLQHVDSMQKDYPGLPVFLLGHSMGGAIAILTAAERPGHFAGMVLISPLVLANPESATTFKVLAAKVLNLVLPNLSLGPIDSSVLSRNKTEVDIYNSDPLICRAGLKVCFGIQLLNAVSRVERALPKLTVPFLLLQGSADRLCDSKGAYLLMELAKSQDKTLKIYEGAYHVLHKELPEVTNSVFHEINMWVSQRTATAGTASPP
Assay type: biochemical
Outline: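 MAGL preincubated with compound 15 min at RT in 50 mM Tris, 1 mM EDTA, 0.01% Tween-20, 2.5% DMSO; reaction started with 8 μM 2-AG (final), […], 30 min at RT. Quenched with acetonitrile containing d8-arachidonic acid; arachidonic acid quantified by RapidFire SPE-triple quad MS as arachidonic acid/d8 ratio.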
With O=C(N1CC2(CC(n3cnc(C4CC4)n3)C2)C1)N1CC2(CN(Cc3ccnn3CC(F)F)C2)C1 [Example 261, [6-(3-cyclopropyl-1,2,4-triazol-1-yl)-2-azaspiro[3.3]heptan-2-yl]-[6-[[2-(2,2-difluoroethyl)pyrazol-3-yl]methyl]-2,6-diazaspiro[3.3]heptan-2-yl]methanone] the IC50 was 95.7 nM. O=C(N1CC2(CC(n3cnc(C(F)(F)F)n3)C2)C1)N1CC2(CN(Cc3cnn(C(F)F)c3)C2)C1 [Example 262, [6-[[1-(difluoromethyl)pyrazol-4-yl]methyl]-2,6-diazaspiro[3.3]heptan-2-yl]-[6-[3-(trifluoromethyl)-1,2,4-triazol-1-yl]-2-azaspiro[3.3]heptan-2-yl]methanone] gave an IC50 of 539 nM. With O=C(N1CC2(CC(n3cnc(C4CC4)n3)C2)C1)N1CC2(CN(Cc3cnn(C(F)F)c3)C2)C1 [Example 263, [6-(3-cyclopropyl-1,2,4-triazol-1-yl)-2-azaspiro[3.3]heptan-2-yl]-[6-[[1-(difluoromethyl)pyrazol-4-yl]methyl]-2,6-diazaspiro[3.3]heptan-2-yl]methanone] the IC50 was 102 nM. O=C(N1CC2(CC(n3cnc(C(F)(F)F)n3)C2)C1)N1CC2(CN(Cc3nc(CC4CC4)no3)C2)C1 [Example 264, [6-[[3-(cyclopropylmethyl)-1,2,4-oxadiazol-5-yl]methyl]-2,6-diazaspiro[3.3]heptan-2-yl]-[6-[3-(trifluoromethyl)-1,2,4-triazol-1-yl]-2-azaspiro[3.3]heptan-2-yl]methanone] showed an IC50 of 76.3 nM. For O=C(N1CC2(CC(n3cnc(C4CC4)n3)C2)C1)N1CC2(CN(Cc3nc(CC4CC4)no3)C2)C1 [Example 265, [6-[[3-(cyclopropylmethyl)-1,2,4-oxadiazol-5-yl]methyl]-2,6-diazaspiro[3.3]heptan-2-yl]-[6-(3-cyclopropyl-1,2,4-triazol-1-yl)-2-azaspiro[3.3]heptan-2-yl]methanone], the IC50 was 9.94 nM. CC(C)(C)c1noc(CN2CC3(C2)CN(C(=O)N2CC4(CC(n5cnc(C6CC6)n5)C4)C2)C3)n1 [Example 266, [6-[(3-tert-butyl-1,2,4-oxadiazol-5-yl)methyl]-2,6-diazaspiro[3.3]heptan-2-yl]-[6-(3-cyclopropyl-1,2,4-triazol-1-yl)-2-azaspiro[3.3]heptan-2-yl]methanone] gave an IC50 of 2 nM. Work on Cc1onc(C2CC2)c1CN1CC2(C1)CN(C(=O)N1CC3(CC(n4cnc(C(F)(F)F)n4)C3)C1)C2 [Example 267, [6-[(3-cyclopropyl-5-methyl-isoxazol-4-yl)methyl]-2,6-diazaspiro[3.3]heptan-2-yl]-[6-[3-(trifluoromethyl)-1,2,4-triazol-1-yl]-2-azaspiro[3.3]heptan-2-yl]methanone] yielded an IC50 of 66.6 nM. Cc1onc(C2CC2)c1CN1CC2(C1)CN(C(=O)N1CC3(CC(n4cnc(C5CC5)n4)C3)C1)C2 [Example 268, [6-[(3-cyclopropyl-5-methyl-isoxazol-4-yl)methyl]-2,6-diazaspiro[3.3]heptan-2-yl]-[6-(3-cyclopropyl-1,2,4-triazol-1-yl)-2-azaspiro[3.3]heptan-2-yl]methanone] was tested, and the IC50 was 8.8 nM. Cc1onc(C2CC2)c1CN1CC2(C1)CN(C(=O)N1CC3(CC(n4cnc(C5(O)CC5)n4)C3)C1)C2 [Example 269, [6-[(3-cyclopropyl-5-methyl-isoxazol-4-yl)methyl]-2,6-diazaspiro[3.3]heptan-2-yl]-[6-[3-(1-hydroxycyclopropyl)-1,2,4-triazol-1-yl]-2-azaspiro[3.3]heptan-2-yl]methanone] was tested, and the IC50 was 311 nM. Cn1nc(C2CC2)cc1CN1CC2(C1)CN(C(=O)N1CC3(CC(c4cc(C5CC5)n[nH]4)C3)C1)C2 [Example 270, [6-[(5-cyclopropyl-2-methyl-pyrazol-3-yl)methyl]-2,6-diazaspiro[3.3]heptan-2-yl]-[6-(3-cyclopropyl-1H-pyrazol-5-yl)-2-azaspiro[3.3]heptan-2-yl]methanone] was tested, and the IC50 was 4.89 nM. Cn1nc(C2CC2)cc1CN1CC2(C1)CN(C(=O)N1CC3(CC(n4cnc(C(F)(F)F)n4)C3)C1)C2 [Example 271] showed an IC50 of 14.8 nM. Cn1nc(C2CC2)cc1CN1CC2(C1)CN(C(=O)N1CC3(CC(n4cnc(C5CC5)n4)C3)C1)C2 [Example 272, [6-[(5-cyclopropyl-2-methyl-pyrazol-3-yl)methyl]-2,6-diazaspiro[3.3]heptan-2-yl]-[6-(3-cyclopropyl-1,2,4-triazol-1-yl)-2-azaspiro[3.3]heptan-2-yl]methanone] showed an IC50 of 7 nM. Compound O=C(N1CC2(CC(n3cnc(C(F)(F)F)n3)C2)C1)N1CC2(CN(Cc3cc(C4CCC4)[nH]n3)C2)C1 [Example 273, [6-[(5-cyclobutyl-1H-pyrazol-3-yl)methyl]-2,6-diazaspiro[3.3]heptan-2-yl]-[6-[3-(trifluoromethyl)-1,2,4-triazol-1-yl]-2-azaspiro[3.3]heptan-2-yl]methanone] has an IC50 of 12 nM. O=C(N1CC2(CC(n3cnc(C4CC4)n3)C2)C1)N1CC2(CN(Cc3cc(C4CCC4)[nH]n3)C2)C1 [Example 274, [6-[(5-cyclobutyl-1H-pyrazol-3-yl)methyl]-2,6-diazaspiro[3.3]heptan-2-yl]-[6-(3-cyclopropyl-1,2,4-triazol-1-yl)-2-azaspiro[3.3]heptan-2-yl]methanone] showed an IC50 of 5.29 nM. Compound CC(C)(C)n1nccc1CN1CC2(C1)CN(C(=O)N1CC3(CC(n4cnc(C(F)(F)F)n4)C3)C1)C2 [Example 275, [6-[(2-tert-butylpyrazol-3-yl)methyl]-2,6-diazaspiro[3.3]heptan-2-yl]-[6-[3-(trifluoromethyl)-1,2,4-triazol-1-yl]-2-azaspiro[3.3]heptan-2-yl]methanone] has an IC50 of 132 nM. CC(C)(C)n1nccc1CN1CC2(C1)CN(C(=O)N1CC3(CC(n4cnc(C5CC5)n4)C3)C1)C2 [Example 276, [6-[(2-tert-butylpyrazol-3-yl)methyl]-2,6-diazaspiro[3.3]heptan-2-yl]-[6-(3-cyclopropyl-1,2,4-triazol-1-yl)-2-azaspiro[3.3]heptan-2-yl]methanone] was tested, and the IC50 was 13.6 nM. Cn1nccc1CN1CC2(C1)CN(C(=O)N1CC3(CC(n4cnc(C5CC5)n4)C3)C1)C2 [Example 277, [6-(3-cyclopropyl-1,2,4-triazol-1-yl)-2-azaspiro[3.3]heptan-2-yl]-[6-[(2-methylpyrazol-3-yl)methyl]-2,6-diazaspiro[3.3]heptan-2-yl]methanone] showed an IC50 of 355 nM. Compound O=C(N1CC2(CC(n3cnc(C4CC4)n3)C2)C1)N1CC2(CN(Cc3cnc(C(F)F)s3)C2)C1 [Example 279, [6-(3-cyclopropyl-1,2,4-triazol-1-yl)-2-azaspiro[3.3]heptan-2-yl]-[6-[[2-(difluoromethyl)thiazol-5-yl]methyl]-2,6-diazaspiro[3.3]heptan-2-yl]methanone] has an IC50 of 9.22 nM. Compound Cn1cnc(C#N)c1CN1CC2(C1)CN(C(=O)N1CC3(CC(n4cnc(C(F)(F)F)n4)C3)C1)C2 [Example 280, 1-methyl-5-[[2-[6-[3-(trifluoromethyl)-1,2,4-triazol-1-yl]-2-azaspiro[3.3]heptane-2-carbonyl]-2,6-diazaspiro[3.3]heptan-6-yl]methyl]imidazole-4-carbonitrile] has an IC50 of 636 nM. Work on Cn1cnc(C#N)c1CN1CC2(C1)CN(C(=O)N1CC3(CC(n4cnc(C5CC5)n4)C3)C1)C2 [Example 281, 5-[[2-[6-(3-cyclopropyl-1,2,4-triazol-1-yl)-2-azaspiro[3.3]heptane-2-carbonyl]-2,6-diazaspiro[3.3]heptan-6-yl]methyl]-1-methyl-imidazole-4-carbonitrile] yielded an IC50 of 164 nM. Work on Cn1cnc(C#N)c1CN1CC2(C1)CN(C(=O)N1CC3(CC(n4cnc(C5(O)CC5)n4)C3)C1)C2 [Example 282, 5-[[2-[6-[3-(1-hydroxycyclopropyl)-1,2,4-triazol-1-yl]-2-azaspiro[3.3]heptane-2-carbonyl]-2,6-diazaspiro[3.3]heptan-6-yl]methyl]-1-methyl-imidazole-4-carbonitrile] yielded an IC50 of 3730 nM. O=C(N1CC2(CC(n3cnc(C4CC4)n3)C2)C1)N1CC2(CN(Cc3cc(C4CC4)n[nH]3)C2)C1 [Example 283, [6-[(3-cyclopropyl-1H-pyrazol-5-yl)methyl]-2,6-diazaspiro[3.3]heptan-2-yl]-[6-(3-cyclopropyl-1,2,4-triazol-1-yl)-2-azaspiro[3.3]heptan-2-yl]methanone] gave an IC50 of 8 nM. In the case of O=C(N1CC2(CC(n3cnc(C(F)(F)F)n3)C2)C1)N1CC2(CN(Cc3cc[nH]n3)C2)C1 [Example 284, [6-(1H-pyrazol-3-ylmethyl)-2,6-diazaspiro[3.3]heptan-2-yl]-[6-[3-(trifluoromethyl)-1,2,4-triazol-1-yl]-2-azaspiro[3.3]heptan-2-yl]methanone], the IC50 is reported as 2310 nM. Compound O=C(N1CC2(CC(n3cnc(C4CC4)n3)C2)C1)N1CC2(CN(Cc3cnn4ccccc34)C2)C1 [Example 285, [6-(3-cyclopropyl-1,2,4-triazol-1-yl)-2-azaspiro[3.3]heptan-2-yl]-[6-(pyrazolo[1,5-a]pyridin-3-ylmethyl)-2,6-diazaspiro[3.3]heptan-2-yl]methanone] has an IC50 of 13.4 nM. CCc1nsc(CN2CC3(C2)CN(C(=O)N2CC4(CC(n5cnc(C(F)(F)F)n5)C4)C2)C3)n1 [Example 286, [6-[(3-ethyl-1,2,4-thiadiazol-5-yl)methyl]-2,6-diazaspiro[3.3]heptan-2-yl]-[6-[3-(trifluoromethyl)-1,2,4-triazol-1-yl]-2-azaspiro[3.3]heptan-2-yl]methanone] gave an IC50 of 120 nM. CCc1nsc(CN2CC3(C2)CN(C(=O)N2CC4(CC(n5cnc(C6CC6)n5)C4)C2)C3)n1 [Example 287, [6-(3-cyclopropyl-1,2,4-triazol-1-yl)-2-azaspiro[3.3]heptan-2-yl]-[6-[(3-ethyl-1,2,4-thiadiazol-5-yl)methyl]-2,6-diazaspiro[3.3]heptan-2-yl]methanone] was tested, and the IC50 was 135 nM.

From patent publication US20260374756A1, “HETEROCYCLIC COMPOUNDS AS INHIBITORS OF MONOACYLGLYCEROL LIPASE (MAGL)” (Hoffmann-La Roche Inc., priority 2022, published 2026)
